Measured values from article PMC5234788 (PLoS ONE, 2017).
Where “and” joins values, the source holds several entries; their conditions need not be identical. Equal values may be shown once.

Key:
Serotonin, 5HT2A = tested on: T1, Serotonin, 5HT2A; test: Radio-ligand binding assay, Serotonin 5HT2A; settings: 10 μM l-THBr; radioligand [3H]Ketanserin
T1 construct: Caliper Lifescience
Protocol: (§1) To determine the possible targets of l-THBr action, the binding affinities of l-THBr to neurotransmitter receptors known to be involved in sedation, hypnosis and anxiety were investigated. Radio-ligand binding assays were performed by Caliper Lifescience (Hopkinton, MA, USA). The screening was carried out at a concentration of 10 μM l–THBr to test its ability to inhibit the binding of radioligands to their corresponding receptors. The results were expressed as percentage of inhibition of labeled ligand binding to individual receptors. Significant binding activity was defined as ≥50%.

[1] = tested on: Glycline, Strychnine-sensitive; test: Radio-ligand binding assay, Glycine strychnine-sensitive; settings: 10 μM l-THBr; radioligand [3H]Strchnine
Protocol: as §1

male CD-1 ICR mice = test: Locomotor activity test; type: in vivo; settings: l-THBr 1, 5, or 10 mg/kg, i.p., 60 min
Description: The spontaneous activity video analysis system consists of 8 sound-attenuated chambers (40 cm × 40 cm × 65 cm) with a built-in infrared camera. (JL Behave, Shanghai Ji-Liang Software Technology Co., Ltd). During the behavioral tests, the experimenter was outside the testing room, and the chambers were cleaned between successive runs. Forty male CD-1 ICR mice were allowed to acclimate for three days in home cages and were handled for another three days to minimize stress after arrival in the animal facility. On the following day, after habituation to the activity chambers for 60 min, mice were administered vehicle, diazepam (DZP, 2 mg/kg, i.p.) or l–THBr (1, 5, or 10 mg/kg, i.p.) and immediately placed into the test chambers to record their locomotor activity for 60 min.

[2] = target: T2, 5-HT1A receptors in rat hippocampus (Rattus norvegicus, UniProt P19327); test: [35S]GTPγS assay for 5-HT1A receptor activity in rat hippocampus; type: biochemical; settings: rat hippocampus membranes; read-out: EC50, increase in [35S]GTPγS binding
T2 construct: rat hippocampal tissues highly expressing 5-HT1A receptors were prepared as previously described; from tissue; host or cells: SD rat hippocampus membranes
Description: (§2) D2-D4 dopamine receptors and 5-HT1A serotonin receptors are Gαi-coupled receptors that mediate inhibitory neurotransmission. We conducted [^35S]GTPγS assays to determine the agonist or antagonist properties of l-THBr at D2 dopamine receptors or 5-HT1A serotonin receptors. HEK293 cells stably expressing D2 receptors were provided by the Beijing Institute of Pharmacology and Toxicology (Beijing, China). The membrane preparation of D2-expressing HEK293 cells and rat hippocampal tissues highly expressing 5-HT1A receptors were prepared as previously described. Briefly, 10 SD rats were anesthetized and decapitated, and the hippocampi were quickly dissected and stored at -80°C until use. D2 receptor-expressing HEK293 cells and the hippocampal tissue were each homogenized at 4°C in 50 mM Tris-HCl buffer (pH 7.4). The homogenates were centrifuged at 2500 × g for 6 min, and the supernatant was further centrifuged for 20 min at 40000 × g. Membranes were re-suspended in Tris-HCl buffer and stored at -80°C until use.
(§3) [^35S]GTPγS assays were performed in a total volume of 0.5 ml at 4°C. […] Bound radioactivity was determined by liquid scintillation counting. Drug effects were expressed as drug-induced increase in binding over basal binding (binding in the absence of drugs). […] The inhibitory effect of l–THBr was determined by a similar equation to obtain the IC50 values.

[3] = tested on: T3, Glutamate, NMDA, Glycine (stry-insens Site (Ionotropic)); test: Radio-ligand binding assay, Glutamate NMDA glycine site; settings: 10 μM l-THBr; radioligand [3H]-MDL-105,519
T3 construct: Caliper Lifescience
Protocol: as §1

Serotonin Transporter = tested on: T4, Serotonin Transporter; test: Radio-ligand binding assay, Serotonin Transporter; settings: 10 μM l-THBr; radioligand [3H]Citalopram,N-Methyl
T4 construct: Caliper Lifescience
Protocol: as §1

Serotonin, 5HT4 = tested on: T5, Serotonin, 5HT4; test: Radio-ligand binding assay, Serotonin 5HT4; settings: 10 μM l-THBr; radioligand [3H] 113808
T5 construct: Caliper Lifescience
Protocol: as §1

Serotonin, 5HT3 = tested on: T6, Serotonin, 5HT3; test: Radio-ligand binding assay, Serotonin 5HT3; settings: 10 μM l-THBr; radioligand [3H]GR 65630
T6 construct: Caliper Lifescience
Protocol: as §1

Dopamine, D3 = tested on: T7, Dopamine, D3; test: Radio-ligand binding assay, Dopamine D3; settings: 10 μM l-THBr
T7 construct: Caliper Lifescience
Protocol: as §1

GABA A, Agonist Site = test: Radio-ligand binding assay, GABA A agonist site; settings: 10 μM l-THBr; radioligand [3H]GABA
Protocol: as §1

[4] = target: T8, human D2 dopamine receptor (Homo sapiens, UniProt P14416); test: biochemical; type: biochemical
T8 construct: host or cells: HEK293
Description: as §2, §3

Dopamine, D4.4 (h) = tested on: T9, Dopamine, D4.4 (h); test: Radio-ligand binding assay, Dopamine D4.4; set-up: species or system human; settings: 10 μM l-THBr
T9 construct: Caliper Lifescience
Protocol: as §1

Dopamine Transporter = tested on: T10, Dopamine Transporter; test: Radio-ligand binding assay, Dopamine Transporter; settings: 10 μM l-THBr; radioligand [3H]WIN 35,428
T10 construct: Caliper Lifescience
Protocol: as §1

Serotonin, 5HT5A (h) = tested on: T11, Serotonin, 5HT5A (h); test: Radio-ligand binding assay, Serotonin 5HT5A; set-up: species or system human; settings: 10 μM l-THBr; radioligand [3H]-LSD
T11 construct: Caliper Lifescience
Protocol: as §1

GABA-B = tested on: T12, GABA-B; test: Radio-ligand binding assay, GABA-B; settings: 10 μM l-THBr; radioligand [3H]CGP 54626A
T12 construct: Caliper Lifescience
Protocol: as §1

[5] = tested on: Glutamate, NMDA Agonist Site (Ionotropic); test: Radio-ligand binding assay, Glutamate NMDA agonist site; settings: 10 μM l-THBr; radioligand [3H]CGP 39653
Protocol: as §1

Serotonin, 5HT6 (h) = tested on: T13, Serotonin, 5HT6 (h); test: Radio-ligand binding assay, Serotonin 5HT6; set-up: species or system human; settings: 10 μM l-THBr; radioligand [3H]-LSD
T13 construct: Caliper Lifescience
Protocol: as §1

[6] = tested on: Glutamate, NMDA, Phencyclidine Site (Ionotropic); test: Radio-ligand binding assay, Glutamate NMDA phencyclidine site; settings: 10 μM l-THBr; radioligand [3H]TCP
Protocol: as §1

Dopamine, D1 (h) = tested on: T14, Dopamine, D1 (h); test: Radio-ligand binding assay, Dopamine D1; set-up: species or system human; settings: 10 μM l-THBr
T14 construct: Caliper Lifescience
Protocol: as §1

T8 sequence (P14416 whole entry): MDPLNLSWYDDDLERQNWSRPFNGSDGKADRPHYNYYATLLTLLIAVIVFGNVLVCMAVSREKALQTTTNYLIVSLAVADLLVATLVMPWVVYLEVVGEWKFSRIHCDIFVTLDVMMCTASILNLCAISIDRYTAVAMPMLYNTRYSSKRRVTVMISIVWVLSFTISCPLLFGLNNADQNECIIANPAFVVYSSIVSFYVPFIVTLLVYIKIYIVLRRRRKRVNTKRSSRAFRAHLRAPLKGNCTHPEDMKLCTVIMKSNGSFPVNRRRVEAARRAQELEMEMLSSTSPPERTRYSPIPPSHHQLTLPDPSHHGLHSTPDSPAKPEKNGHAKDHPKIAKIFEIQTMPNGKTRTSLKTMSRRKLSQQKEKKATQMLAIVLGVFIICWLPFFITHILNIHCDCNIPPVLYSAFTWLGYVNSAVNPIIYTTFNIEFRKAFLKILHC
T2 sequence (P19327 whole entry): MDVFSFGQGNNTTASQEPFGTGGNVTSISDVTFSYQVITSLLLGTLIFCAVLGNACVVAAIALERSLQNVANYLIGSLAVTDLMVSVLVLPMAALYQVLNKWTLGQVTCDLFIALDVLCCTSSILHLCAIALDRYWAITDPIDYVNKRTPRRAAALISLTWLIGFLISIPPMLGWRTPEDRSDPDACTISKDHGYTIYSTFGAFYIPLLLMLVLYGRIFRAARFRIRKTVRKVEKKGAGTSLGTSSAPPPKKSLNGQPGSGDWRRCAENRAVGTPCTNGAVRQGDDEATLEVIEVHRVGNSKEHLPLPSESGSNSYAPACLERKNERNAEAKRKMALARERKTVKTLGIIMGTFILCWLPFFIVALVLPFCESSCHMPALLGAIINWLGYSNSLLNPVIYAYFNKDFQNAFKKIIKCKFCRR

Structure (SMILES): COc1ccc2c(c1O)CN1CCc3cc4c(cc3[C@@H]1C2)OCO4 [l-THBr, levo-tetrahydroberberrubine]
- Average inhibition percentage (Serotonin, 5HT2A): 40.90%
- Average inhibition percentage [1]: 21.26%
- influence on locomotor activity (travel distance) (male CD-1 ICR mice): no influence
- EC50 [2]: 235 nM
- Average inhibition percentage [3]: 1.79%
- Average inhibition percentage (Serotonin Transporter): 34.43%
- Average inhibition percentage (Serotonin, 5HT4): 32.84%
- Average inhibition percentage (Serotonin, 5HT3): 23.02%
- Activity (Dopamine, D3): Yes (Significant binding affinity of l-THBr was defined as greater than 50% inhibition of ligand binding)
- Average inhibition percentage (Dopamine, D3; radioligand [3H]7-OH-DAPT): 77.61%
- Average inhibition percentage (GABA A, Agonist Site): 7.89%
- IC50 [4]: 5.26 nM
- dose-dependent increase in [35S]GTPγS binding (agonist effect) [4]: but not l-THBr induced a dose-dependent increase
- Activity (Dopamine, D4.4 (h)): Yes (Significant binding affinity of l-THBr was defined as greater than 50% inhibition of ligand binding)
- Average inhibition percentage (Dopamine, D4.4 (h); radioligand [3H]-YM-09151-2): 79.55%
- Average inhibition percentage (Dopamine Transporter): 8.8%
- Average inhibition percentage (Serotonin, 5HT5A (h)): 23.79%
- Average inhibition percentage (GABA-B): -6.94%
- Average inhibition percentage [5]: 4.79%
- Average inhibition percentage (Serotonin, 5HT6 (h)): 22.79%
- Average inhibition percentage [6]: -12.74%
- Activity (Dopamine, D1 (h)): Yes (Significant binding affinity of l-THBr was defined as greater than 50% inhibition of ligand binding)
- Average inhibition percentage (Dopamine, D1 (h); radioligand [3H]-SCH23390): 100.6% and 100.61%
